In US5972939A, “Cyclopentene derivatives useful as antagonists of the motilin receptor” (Ortho-McNeil Pharmaceutical, Inc., priority 1998, dated 1999):
Read-outs that look alike come from different tables or passages of the source.

What was measured:
[1] = tested on: rabbit duodenum smooth muscle (motilin and erythromycin induced contractions); experiment: inhibition of motilin (porcine) induced contractions in rabbit duodenum smooth muscle; format: cell-based; conditions: Oryctolagus cuniculus; for IC50: rabbit duodenum strips, porcine motilin; for inhibition at 2 µM: @ 2 μM (2.0 μM)
Procedure: Select compounds of the invention were evaluated for their ability to inhibit motilin and erythromycin induced contractions in the rabbit duodenum smooth muscle. Rabbits were fasted 24-48 h and euthanized. The venral midline incision was made approximately 7.5 cm above the umbilicus upto the xyphoid process, exposing the upper peritoneal cavity. The first 8 cm. of the duodenum starting at the pyloric valve was quickly removed and placed in Krebs solution containing NaCl, ([…]), KCl (4.7 mM), MgSO4 *7 H2 O (1.2 mM), CaCl2 *2 H2 O (2.4 mM), KH2 PO4 (1 mM), D-glucose (10 mM), and NaHCO3 (24 mM). The lumen was flushed with Krebs and excess tissue was removed. The tissue was cut lengthwise, splayed open with the longitudinal muscle layer facing up, and the longitudinal muscle layer was released away from the circular muscle and cut into 3×30 mm strips. A pre-tied 4-0 silk ligature with a loop was placed at the middle of the strip and the strip was folded over the loop so the strip was half its original length. The tissues were mounted in a 10 mL tissue bath (Radnotti Glass Technology, Inc., Monrovia, Calif.) containing Krebs solution gassed with 95% O2 5% CO2 at 37° C. […] The tissues were allowed to equilibrate for 60-90 min with 2-3 wash cycles. The tissues were equilibrated with two initial contractions induced by a concentration of acetylcholine (1×10^-4 M) that produced a maximal contraction (0.1 mM), with the highest taken as 100% maximall contraction of that tissue. Base line and response levels are expressed as grams tension developed and as a percent of the response to acetylcholine. The test compounds were dissolved in DMSO (2 mM/100% DMSO) and applied to the prepared strips 5-15 minutes prior to the addition of porcine motilin. After addition, the tension is constantly monitored over 5 min and the maximum tension is recorded. The percent contraction was measured at four ascending concentrations and where appropriate IC50s were determined.

[2] = biological target: T1, motilin receptors located on the colon of mature rabbits (Oryctolagus cuniculus, UniProt G1T803); experiment: competition with radiolabeled (125I) porcine motilin for the motilin receptors of rabbit colon; format: binding; conditions: for IC50: rabbit colon, 125I motilin
T1 construct: The colon from mature New Zealand rabbits was removed, dissected free from the mucosa and serosa layers, and diced into small pieces; from tissue; host or cells: colon smooth muscle of mature New Zealand rabbits, crude membrane homogenate
T1 sequence (G1T803 1-400): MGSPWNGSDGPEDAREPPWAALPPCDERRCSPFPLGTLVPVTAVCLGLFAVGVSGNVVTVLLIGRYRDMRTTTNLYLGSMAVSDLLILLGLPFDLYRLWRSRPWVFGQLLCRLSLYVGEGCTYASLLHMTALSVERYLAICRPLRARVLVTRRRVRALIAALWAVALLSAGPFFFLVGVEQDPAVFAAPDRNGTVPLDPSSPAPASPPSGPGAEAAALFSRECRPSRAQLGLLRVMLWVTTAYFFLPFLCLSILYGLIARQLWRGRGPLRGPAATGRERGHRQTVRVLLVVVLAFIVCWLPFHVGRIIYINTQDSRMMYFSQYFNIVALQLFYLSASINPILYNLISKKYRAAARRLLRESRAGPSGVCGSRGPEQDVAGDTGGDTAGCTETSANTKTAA
Procedure: The compounds of the invention were tested for their ability to compete with radiolabeled motilin (porcine) for the motilin receptors located on the colon of mature rabbits. The colon from mature New Zealand rabbits was removed, dissected free from the mucosa and serosa layers, and diced into small pieces. […] The homogenate was centrifuged at 1000×g for 15 min. and the supernatant discarded. The pellet was washed twice before being suspended in homogenizing buffer. This crude homogenate is then passed first through a 19 gauge needle then a 23 gauge needle to further suspend the material and stored as -80° C. […] After 30 min, at 30° C., the material was cooled on ice and centrifuged at 13,000×g for 1 minute. The pellet was washed with 1 mL 0.9% saline and centrifuged at 13,000×g for 15 seconds. The pellet was washed again with cold saline and the supernatant was removed. The pellet was counted in the gamma counter to determine the percentage of […] motilin and thereby the percent inhibition of the test compound. IC50s were determined for some compounds by standard techniques.

Row | IC50 ([2]; read-out: IC50 (unit inferred)) | IC50 ([2]; read-out: IC50) | Structure (SMILES) | inhibition at 1 µM [1] | also measured
1 |  |  | CCN(CC)CCN(CC1=CC(Cc2ccccc2)(NC(=O)C(Cl)(Cl)Cl)CC1)c1cccc(O)c1 (stereo not shown) [Compound 50] |  | inhibition at 20 µM ([1]; @ 20 μM): 98%; inhibition at 10 µM ([2]; @ 10 μM): 81%
2 | 600 nM |  | CCN(CC)CCN(CC1=CC(Cc2ccccc2)(NC(=O)C(Cl)(Cl)Cl)CC1)c1cccc(OCCN2CCCCC2)c1 (stereo not shown) [Compound 52] |  | inhibition at 10 µM [1]: 70%
3 | 300 nM |  | CCN(CC)CCN(CC1=CC(Cc2ccccc2)(NC(=O)C(Cl)(Cl)Cl)CC1)c1cccc(OCCN2CCOCC2)c1 (stereo not shown) [Compound 53] |  | IC50 ([1]; read-out: IC50): 3930 nM
4 | 900 nM |  | CCN(CC)CCN(CC1=CC(Cc2ccccc2)(NC(=O)C(Cl)(Cl)Cl)CC1)c1cccc(OCCCN2CCCCC2)c1 (stereo not shown) [Compound 54] |  | inhibition at 5 µM ([1]; @ 5 μM): 24%
5 | 900 nM |  | CCN(CC)CCN(CC1=CC(Cc2ccccc2)(NC(=O)C(Cl)(Cl)Cl)CC1)c1cccc(OCCN2CCCC2)c1 (stereo not shown) [Compound 55] |  | inhibition at 2 µM [1]: 43%
6 | 1500 nM |  | CN(C)CCSc1ccc(NCC2=CC(Cc3ccccc3)(NC(=O)C(Cl)(Cl)Cl)CC2)cc1 (stereo not shown) [Compound 56] |  | inhibition at 2 µM [1]: 24%
7 | 700 nM |  | O=C(NC1(Cc2ccccc2)C=C(CN(CCN2CCOCC2)Cc2cccc(OCCN3CCOCC3)c2)CC1)C(Cl)(Cl)Cl (stereo not shown) [Compound 57] |  | IC50 ([1]; read-out: IC50 (unit inferred)): 1060 nM
8 | 1800 nM |  | CCN(CC)CCSc1ccc(NCC2=CC(Cc3ccccc3)(NC(=O)C(Cl)(Cl)Cl)CC2)cc1 (stereo not shown) [Compound 58] |  | inhibition at 2 µM [1]: 44%
9 |  | 52 nM | O=C(c1ccc(F)cc1)N(CC1=CC(Cc2ccccc2)(NC(=O)C(Cl)(Cl)Cl)CC1)c1cccc(OCCN2CCOCC2)c1 (stereo not shown) [Compound 59] |  | inhibition at 3 µM ([1]; @ 3.0 μM): 54%
10 |  | 90 nM | COc1ccc(C(=O)N(CC2=CC(Cc3ccccc3)(NC(=O)C(Cl)(Cl)Cl)CC2)c2cccc(OCCN3CCOCC3)c2)cc1 (stereo not shown) [Compound 60] |  | inhibition at 10 µM [1]: 49%
11 |  |  | O=C(c1ccc(Br)cc1)N(CC1=CC(Cc2ccccc2)(NC(=O)C(Cl)(Cl)Cl)CC1)c1cccc(OCCN2CCOCC2)c1 (stereo not shown) [Compound 61] | 63% | inhibition at 0.05 µM ([2]; @ 0.05 μM): 64%
12 |  | 50 nM | O=C(c1ccc(F)c(F)c1)N(CC1=CC(Cc2ccccc2)(NC(=O)C(Cl)(Cl)Cl)CC1)c1cccc(OCCN2CCOCC2)c1 (stereo not shown) [Compound 62] | 65% | 
13 |  | 37 nM | O=C(Nc1cccc(F)c1)N(CC1=CC(Cc2ccccc2)(NC(=O)C(Cl)(Cl)Cl)CC1)c1cccc(OCCN2CCOCC2)c1 (stereo not shown) [Compound 63] | 63.8% | 
14 |  | 56 nM | COc1ccc(CC2(NC(=O)C(Cl)(Cl)Cl)C=C(CN(C(=O)c3ccc(F)cc3)c3cccc(OCCN4CCOCC4)c3)CC2)cc1 (stereo not shown) [Compound 65] | 72% | 
15 |  | 56 nM | COc1ccc(CC2(NC(=O)C(Cl)(Cl)Cl)C=C(CN(C(=O)c3ccccc3)c3cccc(OCCN4CCOCC4)c3)CC2)cc1 (stereo not shown) [Compound 66] | 58% | 
16 |  |  | O=C(Nc1ccccc1)N(CC1=CC(Cc2ccc(F)cc2)(NC(=O)C(Cl)(Cl)Cl)CC1)c1cccc(OCCN2CCOCC2)c1 (stereo not shown) [Compound 67] | 25.7% | inhibition at 0.25 µM ([2]; @ 0.25 μM): 34%
17 |  |  | O=C(Nc1ccccc1)N(CC1=CC(Cc2cccc(Cl)c2)(NC(=O)C(Cl)(Cl)Cl)CC1)c1cccc(OCCN2CCOCC2)c1 (stereo not shown) [Compound 68] | 51% | inhibition at 0.1 µM ([2]; @ 0.1 μM): 70%
